Several values for one entry are separate records, joined by “and”; a condition that tells them apart may be missing. Equal entries are not always repeated. Entries after “also recorded” stand apart in the source; their conditions may differ.
Key:
Assay type in all cases: in vivo, human
[1] = tested on: newly diagnosed AML in elderly patients with poor risk AML; assay: CTEP-20 trial, Phase 2, tipifarnib, analysed by CXCL12 expression
Experimental: (§1) Previous clinical studies with tipifarnib were performed in newly diagnosed AML in elderly patients with poor risk AML (CTEP-20, Phase 2) or relapsed and refractory AML (INT-17, Phase 2). In these studies, patient selection was not based on genetic markers. Anecdotal evidence of tipifarnib single agent activity was reported.

[2] = tested on: peripheral T-cell lymphoma (PTCL); assay: Phase II clinical study of tipifarnib in relapsed or refractory PTCL patients; parameters: key to Response: PR: partial response; SD: stable disease; PD: progressive disease
Description: A Phase II clinical study of tipifarnib can be conducted with the primary objective being to assess the antitumor activity of tipifarnib, in terms of Objective Response Rate (ORR) in subjects with relapsed or refractory advanced peripheral T-cell lymphoma (PTCL). Determination of objective tumor response can be performed by the International Workshop Criteria (IWC) and/or measurable cutaneous disease according to the modified Severity Weighted Assessment Tool (mSWAT). Secondary objectives can include accessing the effect of tipifarnib on rate of progression-free survival (PFS) at 1 year, duration of response (DOR), overall survival (OS); and safety and tolerability of tipifarnib.
This Phase II study investigates the antitumor activity in terms of ORR of tipifarnib in subjects with PTCL. Up to 18 eligible subjects with advanced PTCL are enrolled. The total number of patients can be extended to 30.
Subjects receive tipifarnib administered at a starting dose of 900 mg, orally with food, twice a day (bid) for 7 days in alternating weeks (Days 1-7 and 15-21) in 28 day cycles. At the discretion of the investigator, the dose of tipifarnib can be increased to 1200 mg bid if the subject has not experienced dose limiting toxicities at the 900 mg dose level. Subjects who develop serious adverse events (SAE) or ≥grade 2 treatment-emergent adverse events (TEAE) that are deemed related to tipifarnib and lasting ≥14 days will not undergo dose escalation. Stepwise 300 mg dose reductions to control treatment-related, treatment-emergent toxicities are also allowed.
In the absence of unmanageable toxicities, subjects can continue to receive tipifarnib treatment until disease progression. If a complete response is observed, therapy with tipifarnib can be maintained for at least 6 months beyond the start of response.
Tumor assessments are performed at screening and at least once every approximately 8 weeks for 6 months (cycles 2, 4, 6) and once every approximately 12 weeks (cycles 9, 12, 15, etc.) thereafter, until disease progression, starting at the end of Cycle 2. Additional tumor assessments can be conducted if deemed necessary by the Investigator. Subjects who discontinue tipifarnib treatment for reasons other than disease progression must continue tumor assessments until disease progression, withdrawal of subject's consent to study
The study was an eighteen patient Phase II study with a Simon two-stage design (11+7). Two responses were required after the first eleven evaluable patients in order to proceed to second stage. Enrollment is to be extended to thirty patients if five responses are seen in the first stage.
The dose of 900 mg b.i.d. for seven days in alternate week dosing was amended during the first stage to 600 mg b.i.d. for seven days in alternate week dosing.
Formalin-fixed, paraffin-embedded (FFPE) samples were obtained from all subjects for the analysis of gene expression using RNA Seq and of single nucleotide variation (SNV, including SNPs and mutations) using next generation sequencing (NGS). Thirteen samples passed quality control (QC) for expression analysis. Sixteen samples passed quality control for SNV analysis.
This example describes a Phase 2 study (ClinicalTrials.gov Identifier: NCT02464228) designed to investigate the antitumor activity of tipifarnib in 18 patients with relapsed or refractory PTCL, and certain results of the study.
Primary outcome measures: Objective Response Rate (ORR) by the International Workshop Criteria (IWC) and/or measurable cutaneous disease according to the modified Severity Weighted Assessment Tool (mSWAT). Secondary outcome measures include the effect of tipifarnib on rate of progression-free survival (PFS) at 1 year, duration of response (DOR); and safety and tolerability of tipifarnib.
Study Design: oral tipifarnib 300 mg twice daily (bid) on days 1-21 of 28-day treatment cycles. A Simon two-stage design for ORR. […]

[3] = tested on: relapsed and refractory AML; assay: INT-17 trial, Phase 2, tipifarnib, analysed by CXCR4 expression; details: relapsed or refractory AML patients, highest quintile of CXCR4 expression
Experimental: as §1

[4] = Grade ≥3 drug-related TEAEs, % of pts

Cn1cncc1[C@@](N)(c1ccc(Cl)cc1)c1ccc2c(c1)c(-c1cccc(Cl)c1)cc(=O)n2C [tipifarnib]
mPFS ([1]; second CXCL12 expression tertile): 89 days | mPFS ([1]; third tertile (lowest level of CXCL12 expression)): 33 days | median progression free survival (mPFS) ([1]; treatment naïve elderly, frail AML patients, highest CXCL12 expression tertile): 431 days | Median overall PFS ([2]; 5th line, all subjects with NGS data, reference and variant CXCL12 3′ UTR): 53 days | HR (PFS) ([2]; CXCL12/CXCR4 ratio >0.200 versus ≤0.200, P=0.004): 0.22 | anemia [2, 4]: 32% | febrile neutropenia [2, 4]: 32% | leukopenia [2, 4]: 47% | lymphopenia [2, 4]: 16% | neutropenia [2, 4]: 74% | thrombocytopenia [2, 4]: 58% | Safety and Tolerability ([2]; PTCL patients, overall statement): consistent with known safety profile; also recorded: generally well-tolerated | Response ([2]; Table 1, one line per subject 1-18, PTCL patients, 900 mg b.i.d. amended to 600 mg b.i.d., seven days in alternate weeks): PR (3×) and PD (11×) and SD (4×) | Response ([2]; Table 2, RNA Seq Experiment#1, one cell per patient (2002, 2004, 3002, 4001, 2001, 4004)): PD (3×) and SD (2×) and PR | Response ([2]; Table 3, RNA Seq Experiment#2, one cell per patient (2005, 2006, 4005, 4006, 4007, 6003, 2007)): PD (5×) and SD and PR | median duration of durable responses ([2]; cohort of PTCL patients of Example II): 11 months | median time to progression ([2]; five patients with tumor size reductions, associated with elevated CXCL12 expression (p<0.001)): > 6 mo | HR (PFS) ([2]; high versus low CXCL12 expression, FIG. 13A, p=0.0015): 0.22 | Discontinuation for Progressive Disease ([2]; of 17 discontinuations): 16 n | mPFS ([2]; patients with CXCL12 3′ UTR SNV rs2839695, N=7, first time point (FIG. 4)): 48 days | median progression free survival (mPFS) ([2]; patients with CXCL12/CXCR4 ratio >0.200 (N=5)): 189 days | median progression free survival (mPFS) ([2]; patients with CXCL12/CXCR4 ratio ≤0.200 (N=7)): 51 days | mPFS ([2]; patients with CXCL12 reference 3′ UTR (8 patients), FIG. 12A): 133 days | mPFS ([2]; patients with CXCL12 rs2839695, N=7, later timepoint (FIG. 6)): 50 days | mPFS ([2]; patients with CXCL12 variant 3′ UTR (8 with rs2839695 and 1 novel variant), FIG. 12B): 34 days | mPFS ([2]; patients with no SNV in the 3′ UTR of CXCL12 (reference 3′ UTR), N=8, first time point (FIG. 4)): 189 days | mPFS ([2]; patients with no SNV in the 3′ UTR of CXCL12, N=8, later timepoint (FIG. 6)): 134 days | mPFS ([2]; subjects with high CXCL12 expression, FIG. 13A): 190 days | activity in KIR3DL2-expressing PTCL ([2]; subjects with high KIR3DL2 expression (e.g., over 1000)): no activity | mPFS ([2]; subjects with low CXCL12 expression, FIG. 13A): 49 days | median survival [3]: 182 days
